The test system of this assay is E. coli strain DH5α. Briefly: Minimal inhibitory concentration (MIC) against E. coli. Type of assay: cell-based. Conditions: Escherichia coli; 2×YT broth, 37° C., 18 hours; lowest drug concentration that inhibited visible growth. How it is done:
Minimal inhibitory concentrations (MIC) of inhibitors against E. coli strain DH5α (Genotype; F-φ80dlacZΔM15Δ(lacZYA-argF)U169 deoR recA1 endA1 hsdR17(rk^−,mk^+)phoA supE44λ^− thi-1 gyrA96 relA1) obtained from GibcoBRL Life Technologies, Enterobacter cloacae (American Type Culture Collection number 13047), Klebsiella pneumoniae (American Type Culture Collection number 13883) or Staphylococcus capitis (American Type Culture Collection number 35661) were determined as follows. Stock solutions of test compound (Compounds 1 and 2 from Examples 1 and 2 respectively (both isomer A)) and three standard laboratory antibiotics, carbenicillin (Sigma, catalogue No. C3416), kanamycin (Sigma, catalogue No. K4000) and chloramphenicol (Sigma, catalogue No. C1919), were prepared by dissolution of each compound in dimethylsulfoxide at 10 mM. […] Cell densities were adjusted to absorbance at 660 nm (A660)=0.1; the optical density-standardised preparations were diluted 1:1000 in 2×YT broth; and each well inoculated with 0.05 ml of the diluted bacteria. […] The MIC (μM) was recorded as the lowest drug concentration that inhibited visible growth.

Structures are written as SMILES. ≈ marks a conversion by molar mass, not a printed value.

`CCCC[C@H](CN(O)C=O)C(=O)N(C)C1CCN(C)CC1` [Example 7] showed a minimal inhibitory concentration (MIC) of 12.5 µM (≈ 3.74 µg/mL).

These data come from patent US6908911B1, “Antibacterial agents” (British Biotech Pharmaceuticals Limited, priority 1999, dated 2005).
